{"source": "ChEMBL document CHEMBL3120103", "about": "“CK2 inhibitor CX4945 induces sequential inactivation of proteins in the signaling pathways related with cell migration and suppresses metastasis of A549 human lung cancer cells” (Bioorg Med Chem Lett, 2013)", "key": {"NCI-H1299 [1]": {"test_system": "NCI-H1299", "assay": "Antiinvasive activity against human H1299 cells after 3 hrs by Boyden chamber invasion assay", "assay_type": "functional, cell-based"}, "NCI-H1299 [2]": {"test_system": "NCI-H1299", "assay": "Antimigratory activity against human H1299 cells after 24 hrs by wound-healing assay", "assay_type": "functional, cell-based"}, "A549 [3]": {"test_system": "A549", "assay": "Reduction in MMP9 expression in human A549 cells at 1 to 10 uM after 24 hrs by Western blot method", "assay_type": "functional, cell-based"}, "A549 [4]": {"test_system": "A549", "assay": "Reduction in MMP2 expression in human A549 cells at 1 to 10 uM after 24 hrs by Western blot method", "assay_type": "functional, cell-based"}, "A549 [5]": {"test_system": "A549", "assay": "Antiinvasive activity against human A549 cells after 3 hrs by Boyden chamber invasion assay", "assay_type": "functional, cell-based"}, "A549 [6]": {"test_system": "A549", "assay": "Antimigratory activity against human A549 cells after 24 hrs by wound-healing assay", "assay_type": "functional, cell-based"}, "A549 [7]": {"test_system": "A549", "assay": "Cytotoxicity against human A549 cells assessed as viable cells at 1 to 30 uM after 24 hrs by LDH assay", "assay_type": "cell-based", "conditions": "a549, 24 h"}, "[8]": {"assay": "Cytotoxicity against human A549 cells assessed as viable cells at 1 to 30 uM after 24 hrs by CCK8 assay", "assay_type": "cell-based", "conditions": "read-out: Activity"}, "[9]": {"assay": "Cytotoxicity against human A549 cells assessed as viable cells at 1 to 30 uM after 3 hrs by CCK8 assay", "assay_type": "cell-based", "conditions": "read-out: Activity"}}, "note": "Active and inactive are the calls of the source. The calls are words filed in the database; no cut-off is given here."}
{"compound": "O=C(O)c1ccc2c(c1)nc(Nc1cccc(Cl)c1)c1ccncc12", "note": "[SILMITASERTIB]", "values": [{"measurement": "Activity", "setting": "NCI-H1299 [1]", "result": "Dose-dependent effect"}, {"measurement": "Activity", "setting": "NCI-H1299 [2]", "result": "Dose-dependent effect"}, {"measurement": "Activity", "setting": "A549 [3]", "result": "inactive"}, {"measurement": "Activity", "setting": "A549 [4]", "result": "inactive"}, {"measurement": "Activity", "setting": "A549 [5]", "result": "Dose-dependent effect"}, {"measurement": "Activity", "setting": "A549 [6]", "result": "Dose-dependent effect"}, {"measurement": "Activity", "setting": "A549 [7]", "result": "Non-toxic"}, {"measurement": "viability at 24 h, up to 30 µM", "setting": "[8]", "result": "> 70", "unit": "%"}, {"measurement": "viability at 3 h, up to 30 µM", "setting": "[9]", "result": "> 70", "unit": "%"}]}
